Measurements taken from patent publication US12378519B2, “Microfluidic model of the blood brain barrier” (EMULATE, Inc., priority 2015, dated 2025).

Columns and labels:
Type in all cases: cell-based, human
neurons seeded in chip = test system: neurons seeded in chip
iBMEC barrier function = experiment: TEER measurement on prototype TEER chips under flow; conditions: exposure of the chips to TNFa after flow, FIG. 14A
Description: Cells were plated on tall channel PDMS chips equipped with incorporated gold electrodes on each channel (see FIG. 13A). Post seeding of BMECs, transendothelial electrical resistance was measured by connecting the electrodes to an EVOM2 voltohmmeter (see FIG. 13B). […] The “damaged” chip was a failure due to the TEER-Chips being a prototype.
Higher TEER values generally indicate a tighter barrier, which is typically desirable for a blood-brain barrier.

[1] = test system: BMECs seeded on a microfluidic device; experiment: Paracellular permeability assay with Dextran-FITC on chip; conditions: TNF-alpha exposure, FIG. 14B
Description: Albumin or Dextran conjugated to a fluorescent probe (e.g., FITC or TRITC) are frequently used to monitor changes in leakage, and thus barrier function. In this case, Dextran-FITC, a green fluorescent molecule of 4 KDa, or sodium fluorescein (a 0.3 KDa molecule), was added to the bottom (“blood side”) channel. Paracellular permeability was calculated by measuring the permeability of the fluorescent molecule on the Top (“brain side”) channel. […] FIG. 14B involves TNF-alpha exposure, but the readout is membrane permeability as measured by Dextran-FITC.

| Compound | neuronal activity (Ca2+ fluxes, dF/F) (neurons seeded in chip) | iBMEC barrier function (TEER) (iBMEC barrier function) | membrane permeability as measured by Dextran-FITC [1] |
| --- | --- | --- | --- |
| NC1=N[C@H](O)[C@H]2[C@H]3O[C@]4(O)O[C@@H]([C@@H](O)[C@@]2(N1)[C@@H]4O)[C@]3(O)CO [TTX, tetrodotoxin] | ablates this activity | – | – |
| TNFa | – | weakening of barrier function | increase in permeability |
